Source: patent US11279707B2, “NEK inhibitors and methods of use” (DANA-FARBER CANCER INSTITUTE, INC., priority 2017, dated 2022)
pIC50: −log10 of the molar value.

Columns and labels:
Format in all cases: biochemical
NEK9 = biological target: T1, NEK9 (Homo sapiens, UniProt Q8TD19); assay: kinase inhibition, NEK9
T1 sequence (Q8TD19 1-979): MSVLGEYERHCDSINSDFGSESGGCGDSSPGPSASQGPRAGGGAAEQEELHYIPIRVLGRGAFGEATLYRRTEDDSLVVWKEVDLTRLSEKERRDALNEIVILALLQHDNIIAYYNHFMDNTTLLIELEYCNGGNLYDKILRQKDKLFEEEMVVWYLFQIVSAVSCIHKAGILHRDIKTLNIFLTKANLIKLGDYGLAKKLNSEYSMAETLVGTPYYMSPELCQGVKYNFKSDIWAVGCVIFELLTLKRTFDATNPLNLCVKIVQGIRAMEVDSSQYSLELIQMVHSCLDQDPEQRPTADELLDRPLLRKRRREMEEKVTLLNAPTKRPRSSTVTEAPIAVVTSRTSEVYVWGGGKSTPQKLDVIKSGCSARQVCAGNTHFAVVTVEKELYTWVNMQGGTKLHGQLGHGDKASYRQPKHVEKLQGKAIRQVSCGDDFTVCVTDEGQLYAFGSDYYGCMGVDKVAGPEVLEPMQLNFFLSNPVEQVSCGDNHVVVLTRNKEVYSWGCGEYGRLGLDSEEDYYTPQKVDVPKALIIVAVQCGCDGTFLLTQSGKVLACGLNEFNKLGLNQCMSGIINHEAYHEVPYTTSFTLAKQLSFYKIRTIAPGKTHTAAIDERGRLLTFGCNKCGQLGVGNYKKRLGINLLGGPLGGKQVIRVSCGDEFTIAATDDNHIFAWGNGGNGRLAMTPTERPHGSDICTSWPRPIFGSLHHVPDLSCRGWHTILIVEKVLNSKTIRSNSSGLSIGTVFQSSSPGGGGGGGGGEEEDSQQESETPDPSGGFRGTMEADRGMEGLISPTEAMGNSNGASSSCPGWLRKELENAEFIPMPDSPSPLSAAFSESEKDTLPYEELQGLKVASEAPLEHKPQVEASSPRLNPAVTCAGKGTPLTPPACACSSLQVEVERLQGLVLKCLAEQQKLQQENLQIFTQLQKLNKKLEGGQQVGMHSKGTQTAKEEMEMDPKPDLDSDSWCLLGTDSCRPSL

SLK = SLK (Homo sapiens, UniProt Q9H2G2); assay: kinase inhibition, SLK
Chain of SLK (Q9H2G2 whole entry): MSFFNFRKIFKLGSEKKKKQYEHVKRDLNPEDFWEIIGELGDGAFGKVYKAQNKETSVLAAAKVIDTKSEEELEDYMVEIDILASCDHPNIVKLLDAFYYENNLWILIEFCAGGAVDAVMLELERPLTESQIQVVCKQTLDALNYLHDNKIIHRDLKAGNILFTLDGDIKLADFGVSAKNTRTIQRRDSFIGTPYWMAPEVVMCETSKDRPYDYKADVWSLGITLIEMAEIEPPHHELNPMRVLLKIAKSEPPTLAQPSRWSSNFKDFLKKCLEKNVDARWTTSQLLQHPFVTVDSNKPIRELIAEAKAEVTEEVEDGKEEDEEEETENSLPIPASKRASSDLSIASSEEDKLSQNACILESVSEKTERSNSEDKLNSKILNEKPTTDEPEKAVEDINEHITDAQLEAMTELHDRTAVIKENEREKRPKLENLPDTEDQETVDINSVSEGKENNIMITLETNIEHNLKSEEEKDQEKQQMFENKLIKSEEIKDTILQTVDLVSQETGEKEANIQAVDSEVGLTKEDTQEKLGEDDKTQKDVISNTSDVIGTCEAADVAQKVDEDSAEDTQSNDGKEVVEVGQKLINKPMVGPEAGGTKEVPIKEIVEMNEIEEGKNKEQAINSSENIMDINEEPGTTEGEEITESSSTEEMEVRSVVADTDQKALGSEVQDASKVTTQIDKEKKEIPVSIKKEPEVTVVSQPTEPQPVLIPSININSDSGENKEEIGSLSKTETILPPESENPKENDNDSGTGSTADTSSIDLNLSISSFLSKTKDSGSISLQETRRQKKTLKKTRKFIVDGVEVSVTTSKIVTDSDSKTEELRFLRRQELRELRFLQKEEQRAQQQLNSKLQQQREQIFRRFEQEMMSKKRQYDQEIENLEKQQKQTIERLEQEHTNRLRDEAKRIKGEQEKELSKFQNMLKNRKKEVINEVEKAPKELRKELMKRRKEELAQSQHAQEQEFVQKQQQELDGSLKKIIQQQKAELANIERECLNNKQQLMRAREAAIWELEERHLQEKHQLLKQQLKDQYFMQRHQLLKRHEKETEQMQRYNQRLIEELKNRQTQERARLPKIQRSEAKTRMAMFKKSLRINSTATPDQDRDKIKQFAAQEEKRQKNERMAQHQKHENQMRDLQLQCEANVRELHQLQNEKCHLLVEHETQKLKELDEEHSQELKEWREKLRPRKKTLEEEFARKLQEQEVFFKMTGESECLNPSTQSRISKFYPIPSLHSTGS

GSK3B = GSK3B (Homo sapiens, UniProt P49841); assay: kinase inhibition, GSK3B
Chain of GSK3B (P49841 whole entry, species assumed): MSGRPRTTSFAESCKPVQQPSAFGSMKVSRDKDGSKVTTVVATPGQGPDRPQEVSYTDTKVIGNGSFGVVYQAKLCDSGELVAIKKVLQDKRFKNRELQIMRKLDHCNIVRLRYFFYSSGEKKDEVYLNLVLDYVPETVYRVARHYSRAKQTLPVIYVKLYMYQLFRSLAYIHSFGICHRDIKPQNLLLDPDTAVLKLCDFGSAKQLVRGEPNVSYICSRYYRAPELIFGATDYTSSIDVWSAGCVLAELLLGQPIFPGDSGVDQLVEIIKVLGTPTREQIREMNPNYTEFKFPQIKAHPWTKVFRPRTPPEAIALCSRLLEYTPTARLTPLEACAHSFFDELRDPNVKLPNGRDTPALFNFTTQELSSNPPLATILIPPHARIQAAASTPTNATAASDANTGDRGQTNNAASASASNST

MERTK = biological target: T2, MERTK (Homo sapiens, UniProt Q12866); assay: kinase inhibition, MERTK
T2 sequence (Q12866 21-999): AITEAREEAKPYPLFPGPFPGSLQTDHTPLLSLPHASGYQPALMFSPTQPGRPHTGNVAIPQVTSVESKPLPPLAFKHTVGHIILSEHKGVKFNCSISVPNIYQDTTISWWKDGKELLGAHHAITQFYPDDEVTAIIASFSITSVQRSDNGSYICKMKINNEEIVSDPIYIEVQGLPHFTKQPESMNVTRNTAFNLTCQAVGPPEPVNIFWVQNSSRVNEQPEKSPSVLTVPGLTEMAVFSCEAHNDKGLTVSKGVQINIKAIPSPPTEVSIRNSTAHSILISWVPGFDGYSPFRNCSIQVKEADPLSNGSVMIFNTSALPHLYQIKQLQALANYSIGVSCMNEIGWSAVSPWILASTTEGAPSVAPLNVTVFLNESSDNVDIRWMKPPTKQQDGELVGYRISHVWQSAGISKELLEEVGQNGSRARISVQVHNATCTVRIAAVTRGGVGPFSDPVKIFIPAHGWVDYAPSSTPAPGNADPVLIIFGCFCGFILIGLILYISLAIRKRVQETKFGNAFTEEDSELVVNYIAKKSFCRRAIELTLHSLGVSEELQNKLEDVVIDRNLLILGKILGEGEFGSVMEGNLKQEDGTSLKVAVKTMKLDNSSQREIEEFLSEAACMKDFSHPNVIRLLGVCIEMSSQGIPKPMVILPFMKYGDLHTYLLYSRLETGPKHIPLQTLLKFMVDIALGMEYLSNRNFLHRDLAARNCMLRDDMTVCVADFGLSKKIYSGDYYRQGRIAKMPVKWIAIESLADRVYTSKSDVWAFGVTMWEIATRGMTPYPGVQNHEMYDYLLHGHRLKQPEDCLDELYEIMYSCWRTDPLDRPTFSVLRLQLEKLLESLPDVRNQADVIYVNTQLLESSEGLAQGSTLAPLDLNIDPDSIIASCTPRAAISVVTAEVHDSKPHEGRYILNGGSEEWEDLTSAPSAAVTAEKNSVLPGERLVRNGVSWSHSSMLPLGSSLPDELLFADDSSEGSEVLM

AXL = biological target: T3, AXL (Homo sapiens, UniProt P30530); assay: kinase inhibition, AXL
T3 sequence (P30530 26-894): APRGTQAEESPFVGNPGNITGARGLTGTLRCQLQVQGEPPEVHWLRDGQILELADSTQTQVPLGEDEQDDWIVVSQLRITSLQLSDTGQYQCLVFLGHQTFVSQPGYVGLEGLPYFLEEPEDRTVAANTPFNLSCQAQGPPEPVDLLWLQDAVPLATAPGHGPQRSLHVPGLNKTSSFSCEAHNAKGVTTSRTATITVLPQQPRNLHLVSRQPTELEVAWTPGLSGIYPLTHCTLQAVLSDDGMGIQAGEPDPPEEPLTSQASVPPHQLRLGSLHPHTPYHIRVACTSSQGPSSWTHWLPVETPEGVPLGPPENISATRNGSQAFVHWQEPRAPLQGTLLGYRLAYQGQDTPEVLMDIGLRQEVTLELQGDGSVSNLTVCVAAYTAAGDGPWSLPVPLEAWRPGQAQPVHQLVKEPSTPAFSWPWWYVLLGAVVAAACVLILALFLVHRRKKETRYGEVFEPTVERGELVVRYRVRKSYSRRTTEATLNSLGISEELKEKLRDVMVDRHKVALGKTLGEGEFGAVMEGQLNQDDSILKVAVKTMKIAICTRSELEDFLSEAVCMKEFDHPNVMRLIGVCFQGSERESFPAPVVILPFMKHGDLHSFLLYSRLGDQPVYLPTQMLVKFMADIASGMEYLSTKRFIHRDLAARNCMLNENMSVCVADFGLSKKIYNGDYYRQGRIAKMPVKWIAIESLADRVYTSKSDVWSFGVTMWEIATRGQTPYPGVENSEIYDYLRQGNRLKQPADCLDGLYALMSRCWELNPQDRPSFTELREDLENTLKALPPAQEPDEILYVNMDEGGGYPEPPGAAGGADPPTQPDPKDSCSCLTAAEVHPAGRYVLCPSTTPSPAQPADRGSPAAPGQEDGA

RSK1 = RSK1 (Homo sapiens, UniProt Q15418); assay: kinase inhibition, RSK1
Chain of RSK1 (Q15418 whole entry, species assumed): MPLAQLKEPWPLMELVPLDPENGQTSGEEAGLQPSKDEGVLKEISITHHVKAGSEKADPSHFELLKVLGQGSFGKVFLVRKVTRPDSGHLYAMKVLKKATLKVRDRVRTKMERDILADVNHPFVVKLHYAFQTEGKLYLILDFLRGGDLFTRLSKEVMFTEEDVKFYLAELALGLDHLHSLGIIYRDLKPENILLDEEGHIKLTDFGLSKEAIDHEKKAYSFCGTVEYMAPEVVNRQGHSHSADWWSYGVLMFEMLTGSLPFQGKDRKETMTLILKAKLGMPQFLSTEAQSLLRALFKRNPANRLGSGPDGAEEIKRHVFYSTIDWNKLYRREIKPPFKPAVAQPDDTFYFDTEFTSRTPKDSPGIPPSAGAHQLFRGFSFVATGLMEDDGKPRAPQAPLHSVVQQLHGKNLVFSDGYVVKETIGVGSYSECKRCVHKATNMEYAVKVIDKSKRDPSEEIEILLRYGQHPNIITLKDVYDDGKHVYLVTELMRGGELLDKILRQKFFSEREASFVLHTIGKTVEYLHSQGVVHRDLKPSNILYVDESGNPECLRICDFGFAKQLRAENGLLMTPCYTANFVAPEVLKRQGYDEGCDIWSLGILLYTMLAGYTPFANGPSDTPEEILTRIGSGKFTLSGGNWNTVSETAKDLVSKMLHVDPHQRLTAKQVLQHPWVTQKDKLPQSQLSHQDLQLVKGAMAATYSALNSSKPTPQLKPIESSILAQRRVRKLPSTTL

| Structure (SMILES) | pIC50 (SLK) | pIC50 (GSK3B) | pIC50 (MERTK) | pIC50 (AXL) | pIC50 (RSK1) | pIC50 (NEK9) |
| --- | --- | --- | --- | --- | --- | --- |
| CN1CCN(c2ccc(Nc3ncc4c(n3)n3c(cc5ccccc53)c(=O)n4C)cc2C(F)(F)F)CC1 [Compound I-5] | 6.00 to 6.60 | ≤ 5.30 | 5.30 to 6.00 | 5.30 to 6.00 | 5.30 to 6.00 | 6.60 to 7.30 |
| COc1cc(C(=O)N2CCC(N3CCN(C)CC3)CC2)ccc1Nc1ncc2c(n1)n1c(cc3ccccc31)c(=O)n2C [Compound I-4] | 5.30 to 6.00 | ≤ 5.30 | ≤ 5.30 | ≤ 5.30 | 6.00 to 6.60 | 6.00 to 6.60 |
| CN1CCN(c2ccc(Nc3ncc4c(n3)n3c(cc5ccccc53)c(=O)n4C)cc2)CC1 [Compound I-1] | 6.60 to 7.30 | 6.00 to 6.60 | 6.00 to 6.60 | 6.60 to 7.30 | 6.60 to 7.30 | ≥ 7.30 |
| COc1cc(C2CCN(C)CC2)ccc1Nc1ncc2c(n1)n1c(cc3ccccc31)c(=O)n2C [Compound I-6] | 5.30 to 6.00 | ≤ 5.30 | ≤ 5.30 | 5.30 to 6.00 | 6.60 to 7.30 | 6.60 to 7.30 |

Further lines, with some results ahead:

| pIC50 (SLK) | pIC50 (GSK3B) | pIC50 (MERTK) | pIC50 (AXL) | pIC50 (RSK1) | Structure (SMILES) | pIC50 (NEK9) |
| --- | --- | --- | --- | --- | --- | --- |
| 5.30 to 6.00 | 5.30 to 6.00 | ≤ 5.30 | ≤ 5.30 | 6.00 to 6.60 | COc1cc(N2CCN(C)CC2)ccc1Nc1ncc2c(n1)n1c(cc3ccccc31)c(=O)n2C [Compound I-3] | 6.60 to 7.30 |
| 5.30 to 6.00 | 5.30 to 6.00 | ≤ 5.30 | ≤ 5.30 | 5.30 to 6.00 | COc1cc(N2CCC(O)CC2)ccc1Nc1ncc2c(n1)n1c(cc3ccccc31)c(=O)n2C [Compound I-2] | 6.60 to 7.30 |
